Drawing on patent US8309589B2, “Fluorine-containing organosulfur compound and pesticidal composition comprising the same” (Sumitomo Chemical Company, Limited, priority 2007, dated 2012), this text covers pest death rate for 3 compounds.

This assay has as its system Blattalla germanica. Description: Test Example 4: filter paper with sucrose bait, Blattalla germanica. It is filed as in vivo. The following applies: 500 ppm, 0.7 ml on filter paper; 2 male imagoes; after 6 days. As to the method:
A formulation of any one of the present compounds (2), (3) and (4) obtained according to Formulation Example 10 was diluted with water so that the active ingredient concentration was 500 ppm to obtain a test solution.
A filter paper having a diameter of 5.5 cm was spread on the bottom of a polyethylene cup having a diameter of 5.5 cm and 0.7 ml of the test solution was added dropwise onto the filter paper. As a bait 30 mg of sucrose was uniformly placed on the filter paper. Into the polyethylene cup, 2 male imagoes of Blattalla germanica were released and the cup was sealed with a lid. After 6 days, the number of surviving Blattalla germanica was examined and the death rate of the pest was calculated.

With `CC(C)(C)n1cc(CSCCC(F)(F)F)cn1` [present compound (4), 1-tert-butyl-4-[(3,3,3-trifluoropropylsulfanyl)methyl]-1H-pyrazole], the pest death rate stood at 100%.

For the compound `CC(C)(C)c1cc(CSCCC(F)(F)F)no1` [present compound (2), 5-tert-butyl-3-[(3,3,3-trifluoropropylsulfanyl)methyl]isoxazole], the pest death rate stood at 100%.

Turning to `FC(F)(F)CCSCn1cnc(C(F)(F)F)c1` [present compound (3), 4-trifluoromethyl-1-[(3,3,3-trifluoropropylsulfanyl)methyl]-1H-imidazole], the pest death rate came to 100%.
